Laboratory results reported in the CATMoS acute toxicity set (Mansouri et al. 2021).

Test: GHS categories as the set defines them, by LD50: 1 up to 5, 2 up to 50, 3 up to 300, 4 up to 2000, 5 above 2000 mg/kg
Conditions: rat; in vivo; po

Compound | GHS category
O=[N+]([O-])c1cccc(C=NOCc2cccc([N+](=O)[O-])c2)c1 | 4
Nc1c(Br)cc([N+](=O)[O-])cc1Br | 4
CCCOc1ccc(Cl)c2c(=O)c3ccccc3sc12 | 5
CCOC[C@@H]1CO[C@@](Cn2ccnc2)(c2cc3cc(Cl)cc(Cl)c3o2)O1 | 4
O=c1[nH]sc2cc(Cl)ccc12 | 5
FC(F)(F)C(F)(F)C(F)(F)C(F)(F)C(F)(F)C(F)(F)F | 5
CCOC(=O)C(=O)Nc1cc(Cl)ncn1 | 4
C=CCOC(=O)Nc1nc(N2CC=CCC2)cc2nc(=O)on12 | 5
CC(C)OC(=O)C(C)(C)Br | 5
COc1ccc2c(c1)CCN(c1ccccc1)C2c1ccc(OCCN2CCCC2)cc1 (stereo not given) | 4
O=C(Nc1cc(Cl)c(NC(=O)c2cc3ccccc3c(N=Nc3cc(Cl)ccc3Cl)c2O)cc1Cl)c1cc2ccccc2c(N=Nc2cc(Cl)ccc2Cl)c1O | 5
O=S(=O)(O)c1ccc(/N=N/c2c(O)ccc3cc(S(=O)(=O)O)ccc23)cc1 | 5
CCCC(=O)OC | 5
O=S(=O)(O)c1ccc(Cl)cc1 | 4
CCCCCCCC1CCCC(=O)O1 (stereo not given) | 5
Cc1ccc(S(=O)(=O)NCCCCCC(=O)O)cc1 | 5
CON=CC1=CCCN(C(=O)Oc2ccc(C(C)C)cc2)C1 | 4
COC(=O)c1ccc(C(=O)OC)c(N)c1 | 5
CCO[Si](C)(CCCCl)OCC | 5
CCC1(c2ccccc2O)NC(=O)NC1=O (stereo not given) | 5
Cc1nc(NS(=O)(=O)c2ccc(N)cc2)oc1C | 5
O=C(O)c1ccc2ccccc2c1 | 5
C=CCN1C(=O)CCc2c(OCC(O)CN3CCC(Cc4ccccc4)CC3)cccc21 (stereo not given) | 4
Brc1cc(Oc2cc(Br)c(Br)c(Br)c2Br)c(Br)c(Br)c1Br | 5

Compound | GHS category
COc1ccc(-c2ccccc2)cc1NNC(=O)OC(C)C | 5
OCc1cncs1 | 5
CN1C(=CC=O)C(C)(C)c2ccccc21 | 3
NC(=O)N(CO)CO | 5
Brc1nc[nH]c1Br | 4
CCCS(=O)(=O)Nc1ccc(F)c(C(=O)c2c[nH]c3ncc(Br)cc23)c1F | 5
C=CC(C)(CCC=C(C)C)OC(=O)Cc1ccccc1 (stereo not given) | 5
c1ccc(Nc2ccc(NC3CCCCC3)cc2)cc1 | 5
Cc1c(Cl)c(=O)oc2cc(OP(=O)(OCCCCCl)OCCCCCl)ccc12 | 3
CC(=O)OCC1=C(C(=O)O)N2C(=O)[C@@H](NC(=O)[C@H](N)c3ccccc3)[C@H]2SC1 | 5
CC1(C)S[C@@H]2[C@H](NC(=O)C(c3ccccc3)S(=O)(=O)O)C(=O)N2[C@H]1C(=O)O (stereo not given in full) | 5
O=C(O)CN(CCCN(C(=O)O)C(=O)O)C(=O)O | 5
CCCCCCCC/C=C\CCCCCCCCCCCCC | 5
CC1(C)COC(Cn2ccnc2)(c2cc3ccccc3o2)OC1 | 4
CCCc1c(Cc2ccc(-c3ccccc3-c3nn[nH]n3)cc2)c(N2CCCCC2)nc2ncnn12 | 4
COC(OC)N(C)C | 5
FC(F)(Cl)C(F)(Cl)C(F)(Cl)C(F)(F)Cl (stereo not given) | 5
CC[C@H]1OC(=O)[C@H](C)[C@@H](O[C@H]2C[C@@](C)(OC)[C@@H](O)[C@H](C)O2)[C@H](C)[C@@H](O[C@@H]2O[C@H](C)C[C@H](N(C)C)[C@H]2O)[C@](C)(O)C[C@@H](C)CN(C)[C@H](C)[C@@H](O)[C@]1(C)O | 5
CC(C)CCCCCCCOCCCNCCCN | 3
CCCCC1C(=O)N(c2ccccc2)N(c2ccc(S(C)(=O)=O)cc2)C1=O (stereo not given) | 4
Clc1ccc(CSc2ccc(Cl)cc2)cc1 | 5
O=P(Oc1ccccc1)(Oc1ccccc1)Oc1ccccc1-c1ccccc1 | 5
COc1c(Cl)ccc(B(O)O)c1F | 5
NC(CCOc1ccc(C(=NO)C(=O)NC2CN(C(C(=O)O)c3ccc(O)cc3)C2=O)cc1)C(=O)O (stereo not given) | 5

Compound | GHS category
CC1(C(=O)O)CCCCC1 | 4
O=CCC(=O)c1ccc(C2CCCCC2)cc1 | 4
FC(F)CNCc1ccc(Cl)nc1 | 5
COc1ccccc1N=Nc1c(O)ccc2ccccc12 | 5
C=C(C)C(=O)OCCCCCCCCCCCC | 5
COc1cc(CC2NCCc3cc(O)c(O)cc32)cc(OC)c1OC (stereo not given) | 5
CCCc1nc2c(C)cc(-c3nc4ccccc4n3C)cc2n1Cc1ccc(-c2ccccc2C#N)cc1 | 5
CC(=O)OCC1=C(C(=O)O)N2C(=O)[C@@H](N)[C@H]2SC1 | 5
Nc1cccc2c(S(=O)(=O)O)cccc12 | 5
Nc1ccc2oc(N)nc2c1 | 4
CCOC(=O)c1cc(Cl)ccc1OC(N)=O | 5
C/C=C(\C)C(=O)OCC | 5
CCN(C(=O)CCCn1nnnc1C)C1CCCCC1 | 4
N#CCC(=O)c1ccccc1Cl | 5
Cc1cc(C2CC2)nc(Nc2ccccc2)n1 | 5
CCCC(=O)OCC(C)C | 5
NC(=O)[C@@H]1C[C@]2(NC(=O)NC2=O)c2cc(F)ccc2O1 | 5
CCCCCCc1ccc(OP(=O)(Oc2ccccc2)Oc2ccccc2)cc1 | 5
CC(C)[C@@H]1CC[C@@H](C)C[C@H]1OC(=O)Cc1ccccc1 | 5
CCCc1nc(C)c2c(=O)nc(-c3cc(S(=O)(=O)O)ccc3OCC)[nH]n12 | 5
O=C(O)[C@H](CO)Nc1ccc([N+](=O)[O-])cc1 | 5
CN1CC(c2ccn(C)n2)CC2c3cccc4[nH]cc(c34)CC21 (stereo not given) | 4
COc1cc(OC)nc(NC(=O)NS(=O)(=O)c2c(C(=O)O)cnn2C)n1 | 5
CCn1cc(C(=O)O)c(=O)c2cc(F)c(N3CCNCC3)cc21 | 5

Compound | GHS category
CC1(C)CCC(=Cc2ccc(Cl)cc2)C1(O)Cn1cncn1 (stereo not given) | 5
COC[C@H]1CO[C@@](Cn2ccnc2)(c2cc3cc(Cl)cc(Cl)c3o2)O1 | 4
COc1ccc(C2NC(=O)C(C)S2)cc1 (stereo not given) | 5
CCCCc1c(Cc2ccc(-c3ccccc3-c3nn[nH]n3)cc2)c(=O)nc2nc(C)[nH]n12 | 4
CCCC/C=C/CC/C=C\CCCCCCOC(C)=O | 5
CC(C)=CCC(O)C1=CC(=O)c2c(O)ccc(O)c2C1=O (stereo not given) | 4
CCCCOC(=O)c1ccccc1OC(N)=O | 5
Cc1ccccc1OC(=O)c1ccccc1OC(N)=O | 5
CCOP(=O)(CC(=O)Nc1cc2c(Nc3ccc(F)c(Cl)c3)ncnc2cc1O[C@H]1CCOC1)OCC | 5
CCCCCCCCCCCC(=O)OC | 5
CC(Br)(CBr)COc1c(Br)cc(C(C)(C)c2cc(Br)c(OCC(C)(Br)CBr)c(Br)c2)cc1Br (stereo not given) | 5
O=C1CC(N2C(=O)c3ccccc3C2=O)CC(=O)N1CN1CCOCC1 | 5
C[C@@H]1C[C@H]2[C@@H]3CCC4=CC(=O)C=C[C@]4(C)[C@@]3(F)[C@@H](O)C[C@]2(C)[C@@]1(O)C(=O)CO | 5
O=C(O)CCCCCNc1nc(NCCCCCC(=O)O)nc(NCCCCCC(=O)O)n1 | 5
CCOC(=O)C(Cl)C(=O)OCC | 4
CCCCCCCCCCCC(=O)OCC(C)O (stereo not given) | 5
Cl[Si](Cl)(C1CCCC1)C1CCCC1 | 5
CC(=O)OC1CCC2(C)C(CCC3(C)C2C(=O)C=C2C4CC(C)(C(=O)O)CCC4(C)CCC23C)C1(C)C (stereo not given) | 5
Cc1ccc2nc(-c3ccc(N)cc3)sc2c1S(=O)(=O)O | 5
C[C@@H](O)[C@H]1C(=O)N2C(C(=O)O)=C(S[C@@H]3CN[C@H](C(=O)N(C)C)C3)[C@H](C)[C@H]12 | 5
O=S(=O)(O)c1cc(-n2ncc(-c3ccccc3)n2)ccc1C=Cc1ccc(-n2ncc(-c3ccccc3)n2)cc1S(=O)(=O)O | 5
COc1ccc(N=NC(C(C)=O)C(=O)Nc2ccccc2OC)c([N+](=O)[O-])c1 (stereo not given) | 5
CCCCC(CC)CNc1ccc(NCC(CC)CCCC)c2c1C(=O)c1c(O)ccc(O)c1C2=O (stereo not given) | 5
Clc1cccc(Cl)c1Nc1ccccc1 | 5

Compound | GHS category
CC(C)=NO | 5
CCCC1O[C@@H]2C[C@H]3[C@@H]4CCC5=CC(=O)C=C[C@]5(C)[C@H]4[C@@H](O)C[C@]3(C)[C@]2(C(=O)CO)O1 (stereo not given in full) | 5
O=C(O)CNC(c1ccccc1)c1ccc(F)cc1 (stereo not given) | 4
CCCC/C=C\CCCCCCCCCC=O | 5
C1C[C@@H]2[C@H]3CC[C@H](C3)[C@@H]2C1 | 5
CCCCC(CC)C1NC(=O)N(SC(Cl)(Cl)Cl)C1=O (stereo not given) | 4
CCCCCOC1OC(C)C(O)C(O)C1O (stereo not given) | 5
OCCCOc1nn(-c2cccc(C(F)(F)F)c2)c2ncccc12 | 4
CC(C)(c1ccccc1)c1cc(-n2nc3ccccc3n2)c(O)c(C(C)(C)c2ccccc2)c1 | 5
Clc1cc(Cl)c2oc(C3(Cn4cncn4)OCCO3)cc2c1 | 4
CC1Cc2ccccc2N1NC(=O)c1ccc(Cl)c(S(N)(=O)=O)c1 (stereo not given) | 5
O=C1C=CC=CC1=CNc1ccccc1C(=O)O | 4
CCOc1ccc(C(C)(C)COCc2cccc(Oc3ccccc3)c2)cc1 | 5
C=C(C)CCO | 5
COc1ccc(C[C@](C)(NC(N)=O)C(=O)O)cc1OC | 5
COc1ccc(-c2nc(C)c(C(N)=O)s2)cc1 | 5
c1ccc(-c2cc3ccccc3[nH]2)cc1 | 5
COC(=O)c1ccccc1S(=O)(=O)NC(=O)Nc1nc(C)cc(C)n1 | 5
O=C(c1ccc(F)cc1)c1cc(I)ccc1Cl | 5
O=C(O)CC[C@@H](C(=O)O)N(CC(=O)O)CC(=O)O | 5
CC(C)CCCC(C)CCO (stereo not given) | 5
NNC(=O)NN | 5
Nc1ccc2cc(S(=O)(=O)O)c(/N=N/c3ccc(-c4ccc(/N=N/c5ccc(O)c(C(=O)O)c5)cc4)cc3)c(O)c2c1 | 5
O=C(O)c1ccc(C(=O)O)o1 | 5
